Reference: patent US9446081B2, “Pharmaceutical composition for preventing and treating complications of diabetes containing a traditional oriental medicine extract or a fraction thereof as an active ingredient” (KOREA INSTITUTE OF ORIENTAL MEDICINE, priority 2011, dated 2016)

How the values were obtained:
[1] = system: spontaneous diabetic Torii (SDT) rats; experiment: Diabetic nephropathy in type II diabetic animal model; type: in vivo, rat; details: oral once a day 16 weeks
Protocol: (§1) To investigate the effect of the extract of Homonoia riparia Lour. on the prevention and treatment of diabetic complications in spontaneous diabetic Torii (SDT) rats, the type II diabetic animal model, the extract of Homonoia riparia Lour. was orally administered to the animal for 16 weeks. 10-week old male SDT rats (CLEA Japan Inc., Tokyo, Japan) were adapted for 1 week, and then continued to raise for 15 weeks until the blood sugar level reached 300 mg/dl. Feed and water were provided freely. 15 weeks later, the rats were grouped into 5 group (8 rats per group), to which the extract of Homonoia riparia Lour. (HR) and the control drug MET were administered orally once a day. The experimental groups included the normal group (NOR), the diabetic group (DM), the metformin (350 mg/kg) treated diabetic group (MET), the Homonoia riparia Lour. extract (100 mg/kg) treated diabetic group (HR-100), and the Homonoia riparia Lour. extract (250 mg/kg) treated diabetic group (HR-250). Each group was administered with the test samples orally once a day for 16 weeks. Urine was picked up 24 hours before autopsy. The organs extracted by autopsy were stored at −80° C.
To investigate the effect of the extract of Homonoia riparia Lour. on the functions of the kidney suffering from chronic diabetes, urine was taken from the animal model 24 hours before the autopsy, with which renal indices {proteinuria, albuminuria, and glomerular filtration rate (Ccr)}, and glycation products (AGES and CML) were quantified. ELISA was performed to measure proteinuria, albuminuria, glomerular filtration rate, AGEs, CML, and podocyte (synaptopodin and WT-1). Particularly, the urine sample was mixed with coating buffer (50 mM carbonate buffer, pH 9.6) to make the final volume to be 100 μl (1:2), which was distributed in a 96-well plate. The plate stood at 37° C. for 3 hours and then washed with 0.05% PBST three times, followed by blocking with 3% skim milk. The plate stood as it was for 1 more hour and then washed. AGEs (Transgenic, JAPAN), CML (Transgenic, JAPAN), albumin, synaptopodin, and WT-1 (Santa Cruz, USA) antibodies were diluted respectively at the ratio of 1:1000, which were loaded in each well of the plate by 100 μl. The plate stood at 37° C. for 2 hours, and washed with 0.05% PBST. HRP-conjugated secondary antibody was loaded in each well of the plate by 100 μl, followed by reacting at 37° C. for 1 hour. 100 μl of the substrate, 3,3′,5,5′-tetramethylbenzidine (TMB) in 0.05% PBST was added to each well of the plate. 5 minutes later, the reaction was terminated by adding 1M H2SO4 solution (100 μl/well). Then OD was measured with an ELISA reader.
Immunological staining was performed as follows. After deparaffinization and hydration, the slide was reacted in 3% H2O2 solution for 10 minutes to deactivate endogenous peroxidase activity therein. Then, the slide was washed with PBS containing 0.05% tween 20 three times. To eliminate non-specific reaction, the slide was blocked with 5% AFB (animal free bock). The primary antibodies AGEs (Transgenic, Japan) and CML (Transgenic, Japan) were diluted (1:1000) and treated to the slide for 1 hour or overnight. After washing with PBS for 1 hour, the slide was treated with labeled streptavidin biotin (LSAB) kit (Dako, USA), followed by color development by using DAB (Dako, USA). Observation was performed under optical microscope.
The kidney was extracted from the animal model during the autopsy, which was fixed in 10% neutralized formalin for overnight. […]

[2] = system: spontaneous diabetic Torii (SDT) rats; experiment: Inhibition of diabetic retinopathy in type II diabetic animal model; type: in vivo, rat; details: oral once a day 16 weeks, metformin 350 mg/kg
Protocol: as §1
When hyperglycemic state continues, retinal vessels in eyeball become mal-functioning to cause blood-retinal barrier breakage. […]

[3] = extract 100 or 250 mg/kg, metformin 350 mg/kg, vs diabetic group (DM), FIG. 6

## CN(C)C(=N)N=C(N)N [metformin]
[1]; extract 100 or 250 mg/kg dose-dependently, metformin 350 mg/kg (not so significant), FIG. 9
  glomerular hypertrophy and mesangial matrix expansion / morphological changes (PAS staining): decreased
[1]; extract 100 or 250 mg/kg, metformin 350 mg/kg, FIG. 7
  AGEs and CML in urine: not much reduced
[1]; [3]
  albuminuria: significantly reduced
  proteinuria: higher
[1]; extract 100 or 250 mg/kg, metformin 350 mg/kg, vs diabetic group (DM), FIG. 10
  collagen deposition in glomerulus (Masson's trichrome staining): not much different
[2]; extract 100 or 250 mg/kg (HR-100, HR-250), FIG. 2
  blood-retinal barrier breakage (fluorescein-dextran flown out of retinal vessels, non-perfusion area): fluorescent material was merely observed
[2]; extract 100 or 250 mg/kg, vs diabetic group, FIG. 3
  pericyte loss, acellular capillary formation and closed vessels in retina: significantly decreased
